Reference: PMC6256112, “Cannabinoid Receptor 2 Signalling Bias Elicited by 2,4,6-Trisubstituted 1,3,5-Triazines” (Frontiers in Pharmacology, 2018)
Like-named read-outs stand apart in the source and are kept apart here. Marks after values point to notes of the source that are not given here.

Assays:
[1] = molecular target: T1, hCB2 (Homo sapiens, UniProt P34972); assay: Real-time CAMYEL BRET cAMP assay, forskolin-stimulated HEK Flp-in hCB2 cells; format: cell-based; settings: for logR [log(τ/KA)] (±SEM) cAMP: operational model transduction ratio; for Emax: read-out: cAMP (5 min) Emax (±SEM)
T1 construct: expressed in transfected cells; host or cells: HEK Flp-in
T1 sequence (P34972 whole entry): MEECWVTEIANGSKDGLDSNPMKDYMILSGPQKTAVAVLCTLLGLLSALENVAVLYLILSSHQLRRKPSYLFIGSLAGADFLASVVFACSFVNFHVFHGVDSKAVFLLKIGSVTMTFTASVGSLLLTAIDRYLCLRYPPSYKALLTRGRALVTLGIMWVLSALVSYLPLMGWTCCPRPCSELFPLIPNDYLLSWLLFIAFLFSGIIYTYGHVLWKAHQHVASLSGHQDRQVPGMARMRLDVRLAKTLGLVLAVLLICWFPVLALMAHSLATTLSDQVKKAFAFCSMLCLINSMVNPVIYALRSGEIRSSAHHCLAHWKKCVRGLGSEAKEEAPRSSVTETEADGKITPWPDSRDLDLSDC
Procedure: Cellular cAMP levels were measured using a real-time BRET biosensor (CAMYEL) as previously described ([Cawston et al., 2013]). In brief, cells were seeded in 10 cm dishes one day prior to transfection. The medium was then replaced and cells transfected with 5 μg of pcDNA3L-His-CAMYEL (ATCC, Manassas, VA, United States) using linear PEI (MW 25 kDa; Polysciences, Warrington, PA, United States) with a DNA:PEI ratio of 1:6. Approximately 24 h after transfection, cells were trypsinised and re-plated in poly-D-lysine treated white 96-well plates (Corning), at a density of 5–6 × 10^4 cells per well. For experiments involving pertussis toxin (PTX; Sigma-Aldrich) pre-treatment, cells were seeded in half the usual volume of medium, and then ∼5 h later, 2× concentrated PTX or vehicle (50% glycerol, […] Tris–HCl pH 7.5, 10 mM glycine, 500 mM NaCl) were prepared in medium and added to the existing plating medium (giving rise to a final PTX concentration of 100 ng mL^-1). Approximately 24 h after plating (or 16–20 h after applying PTX/vehicle in experiments involving PTX treatment), cells were washed once with Hank’s Balanced Salt Solution (HBSS, Thermo Fisher Scientific, catalogue #14025-134), and then equilibrated for 30 min in HBSS supplemented with 1 mg mL^-1 BSA. Coelenterazine h (final concentration 5 μM; NanoLight Technologies, Pinetop, AZ, United States) was added to each well and incubated for 5 min. Forskolin was added (final concentration 5 μM) and incubated for 6 min (allowing enough time for the induced cAMP increase to plateau), prior to vehicle/drug addition. All drugs and reagents were prepared in HBSS supplemented with 1 mg mL^-1 BSA. SR 144528 was a generous gift from Roche (Basel, Switzerland).
Assays were carried out in technical duplicate. Emissions were detected at 460 nm (Rluc) and 535 nm (YFP) with either a LUMIstar® Omega luminometer (BMG Labtech, Ortenberg, Germany) or CLARIOstar® (BMG Labtech). BRET ratios (535 nm emissions/460 nm emissions, where an increase in ratio corresponds to a decrease in cAMP) were normalised to pre-forskolin reads (i.e., with coelenterazine h present) to remove any variability present prior to addition of forskolin and drug/vehicle. A Lowess curve (GraphPad Prism) was fitted to individual technical replicates within an assay so that cAMP signalling data could be extrapolated from any time point as opposed to only those that were empirically measured (typically every 30–60 s). Data were normalised to matched vehicle (0%) and forskolin (100%) treatments, allowing compilation of data from independent experiments.

[2] = system: HEK Flp-in wt cells; assay: CAMYEL cAMP assay in HEK Flp-in wt cells (non-hCB2-mediated effects); format: cell-based, human; settings: for Non-hCB2-mediated effects on cAMP (in words): HEK Flp-in wt
[3] = molecular target: T1, hCB2; assay: Radioligand competition binding with [3H]-CP 55,940 on hCB2-expressing HEK membranes; settings: for hCB2 displacement of [3H]-CP 55,940 in 10 μM screen (in words): 10 μM heterologous competition screen, cut-off 60%; for inhibition at 10 µM: 1 h, read-out: CB2 binding extent at 10 μM (%) (±SEM); for Reduction in hCB2 binding affinity compared to 15: compared to methylpiperazinyl-15
[4] = molecular target: T1, hCB2; assay: Comparison of efficacy/potency and operational-model bias analysis between hCB2 pathways, reference CP 55,940; format: cell-based; settings: for Internalisation – pERK Bias factor / cAMP – internalisation Bias factor / cAMP – pERK Bias factor: 10^ΔΔlogR; for Internalisation – pERK ΔΔlogR (±SEM) / cAMP – internalisation ΔΔlogR (±SEM) / cAMP – pERK ΔΔlogR (±SEM): relative to reference ligand CP 55,940
[5] = molecular target: T1, hCB2; assay: pERK AlphaLISA assay, HEK Flp-in hCB2 cells; format: cell-based; settings: for logR [log(τ/KA)] (±SEM) pERK: operational model transduction ratio; for Time of maximal pERK response: time course experiment
[6] = molecular target: T1, hCB2; assay: hCB2 internalisation assay (immunocytochemistry of surface receptor), HEK Flp-in hCB2 cells; format: cell-based; design: Emax: dose or concentration left out as unconfirmed; settings: for logR [log(τ/KA)] (±SEM) Internalisation: operational model transduction ratio
[7] = molecular target: T2, hCB1 (Homo sapiens, UniProt P21554); assay: Radioligand competition binding screen with [3H]-CP 55,940 on hCB1-expressing HEK membranes; settings: for CB1 binding extent at 10 μM (%) (±SEM): 10 μM compound, displacement of 0.75 nM [3H]-CP 55,940; for CB2 selectivity over CB1 (in words): from CB1 binding at 10 μM versus CB2 affinity
T2 construct: expressed in transfected cells; host or cells: HEK (membranes)
T2 sequence (P21554 whole entry): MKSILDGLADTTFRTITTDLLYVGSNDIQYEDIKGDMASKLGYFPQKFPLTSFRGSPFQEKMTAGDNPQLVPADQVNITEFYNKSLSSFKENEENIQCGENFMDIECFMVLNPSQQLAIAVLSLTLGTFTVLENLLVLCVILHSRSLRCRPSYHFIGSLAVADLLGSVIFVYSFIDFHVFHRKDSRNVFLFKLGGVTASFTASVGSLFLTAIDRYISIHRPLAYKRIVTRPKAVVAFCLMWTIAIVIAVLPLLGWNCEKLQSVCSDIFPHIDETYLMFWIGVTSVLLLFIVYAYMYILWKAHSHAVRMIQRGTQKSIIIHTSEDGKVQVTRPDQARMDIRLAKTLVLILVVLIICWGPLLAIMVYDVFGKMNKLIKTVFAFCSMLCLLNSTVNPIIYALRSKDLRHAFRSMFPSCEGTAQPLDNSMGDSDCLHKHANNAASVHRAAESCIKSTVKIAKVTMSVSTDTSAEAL

[8] = 10 μM compound, displacement of 0.5 nM [3H]-CP 55,940
[9] = read-out: Internalisation (1 h) Emax (±SEM)

For SR 144528 [reference compound], the “PTX sensitivity of cAMP signal (in words)” value [1] was “PTX-sensitive”, the “Time to maximum cAMP effect after drug addition” value [1] was “approximately 6 min” and the “cAMP (5 min) Emax (±SEM)” value [1] was 55.4%. The “Non-hCB2-mediated effects on cAMP (in words)” value (“Non-hCB2-mediated effects” for short) [2] was “did not exhibit any measurable non-hCB2-mediated effects”.

For `CCOc1nc(NC2CCCC2)nc(N2CCNCC2)n1` [Compound 2, N-cyclopentyl-4-ethoxy-6-(piperazin-1-yl)-1,3,5-triazin-2-amine], the “hCB2 displacement of [3H]-CP 55,940 in 10 μM screen (in words)” value (“hCB2 displacement” below) [3] was “failed to displace, or barely displaced” and the inhibition at 10 µM [3, 8] was 5.8%.

With `CCOc1nc(NC2CCCC2)nc(N2CCN(CCCCCCN)CC2)n1` [Compound 5, 4-(4-(6-Aminohexyl)Piperazin-1-yl)-N-Cyclopentyl-6-Ethoxy-1,3,5-Triazin-2-Amine] the “hCB2 displacement” value [3] was “failed to displace, or barely displaced” and the inhibition at 10 µM [3, 8] was 16.6%.

`CCOc1nc(NC23CC4CC(CC(C4)C2)C3)nc(N2CCN(CCN)CC2)n1` [Compound 11, N-(Adamantan-1-yl)-4-(4-(2-Aminoethyl)Piperazin-1-yl)-6-Ethoxy-1,3,5-Triazin-2-Amine] was tested, and the “hCB2 displacement” value [3] was “moderate binders” and the inhibition at 10 µM [3, 8] was 40.1%.

In the case of `CCOc1nc(NC23CC4CC(CC(C4)C2)C3)nc(N2CCN(CCOCCOCCNC(C)=O)CC2)n1` [Compound 14, N-(2-(2-(2-(4-(4-((Adamantan-1-yl)Amino)-6-Ethoxy-1,3,5-Triazin-2-yl)Piperazin-1-yl)Ethoxy)Ethoxy) Ethyl)Acetamide], the “Internalisation – pERK Bias factor” value ([4]; relative to CP 55,940) is reported as 8.6, the “cAMP – internalisation Bias factor” value ([4]; relative to CP 55,940) is reported as 0.2 and the “cAMP – pERK Bias factor” value ([4]; relative to CP 55,940) is reported as 1.6. For the same compound, the “Between-pathway signalling bias (in words)” value ([4]; relative to CP 55,940) was “biased towards internalisation”, the “Internalisation – pERK ΔΔlogR (±SEM)” value [4] was 0.93 (0.13)** and the “cAMP – internalisation ΔΔlogR (±SEM)” value [4] was “–0.73 (0.25)*”. For the same compound, the “cAMP – pERK ΔΔlogR (±SEM)” value [4] was 0.20 (0.25), the EC50 [5] was 7410 nM and the “logR [log(τ/KA)] (±SEM) pERK” value [5] was 5.16 (0.09). The Emax ([5]; read-out: pERK (4 min) Emax (±SEM)) was 4.66%, the “Time of maximal pERK response” value [5] was 4 min and the EC50 [1] was 955 nM. For the same compound, the “Behaviour in cAMP pathway (in words)” value ([1]; 5 μM forskolin) was “partial agonists”, the “logR [log(τ/KA)] (±SEM) cAMP” value [1] was 5.83 (0.23) and the Emax [1] was -29.8%. The Ki [3] was 1780 nM, the inhibition at 10 µM [3] was 76.2% and the “Reduction in hCB2 binding affinity compared to 15” value [3] was 2–3 log units. For the same compound, the “Non-hCB2-mediated cAMP effects: fold less potent than cAMP inhibition in hCB2-expressing cells” value ([2]; HEK Flp-in wt versus HEK Flp-in hCB2) was roughly 5 fold, the EC50 [6] was 174 nM and the “logR [log(τ/KA)] (±SEM) Internalisation” value [6] was 6.81 (0.23). The Emax [6, 9] was -61.8%, the “CB1 binding extent at 10 μM (%) (±SEM)” value [7] was “–18.8 (11.4) %” and the “CB2 selectivity over CB1 (in words)” value [7] was “likely also CB2-selective”.

In the case of `CCOc1nc(NC23CC4CC(CC(C4)C2)C3)nc(N2CCN(CCOCCOCCN)CC2)n1` [Compound 13, N-(Adamantan-1-yl)-4-(4-(2-(2-(2-Aminoethoxy) Ethoxy)Ethyl)Piperazin-1-yl)-6-Ethoxy-1,3,5-Triazin-2-Amine], the “Behaviour in pERK pathway (in words)” value ([5]; 4 min) is reported as “weak partial agonists”, the EC50 ([5]; 4 min stimulation, 14 approximate (low potency), read-out: pERK (4 min) pEC50 (±SEM) (converted)) is reported as 537 nM and the “Time of maximal pERK response” value [5] is reported as 4 min. The “Behaviour in cAMP pathway (in words)” value ([1]; 5 μM forskolin) was “unconventional transient inverse agonist”, the “Time to maximum cAMP effect after drug addition” value ([1]; 5 μM forskolin) was roughly 4 min and the “Time to return to cAMP concentration induced by forskolin alone” value ([1]; 5 μM forskolin) was 10 to 15 min. The EC50 ([1]; 5 min post-drug, 5 μM forskolin, 10 and 14 approximate (non-hCB2-mediated effects), read-out: cAMP (5 min) pEC50 (±SEM) (converted)) was 794 nM, the “PTX sensitivity of cAMP signal (in words)” value ([1]; PTX 100 ng mL-1 pre-treatment 16–20 h) was “completely PTX-sensitive” and the inhibition at 10 µM [3, 8] was 81.1%. The “Reduction in hCB2 binding affinity compared to 15” value [3] was 2–3 log units, the Ki ([3]; heterologous competition vs [3H]-CP 55,940, read-out: CB2 pKi (±SEM) (converted)) was 1820 nM and the “Non-hCB2-mediated effects” value [2] was “did not exhibit any measurable non-hCB2-mediated effects”. For the same compound, the “Behaviour in internalisation pathway (in words)” value ([6]; 1 h stimulation) was “neutral antagonist”, the “Internalisation (1 h) pEC50 (±SEM)” value ([6]; 1 h stimulation) was “Not Measurable” and the Emax at 10 µM ([6]; read-out: Internalisation (1 h) Emax (±SEM), 1 h stimulation, change in surface hCB2 relative to vehicle-treated (100%), for 13 efficacy at 10 μM) was 6.2%. The “CB1 binding extent at 10 μM (%) (±SEM)” value [7] was 29.6 (7.6) % and the “CB2 selectivity over CB1 (in words)” value [7] was “likely also CB2-selective”.

`CCOc1nc(Cl)nc(NC2CCCC2)n1` [Compound 1, 4-Chloro-N-cyclopentyl-6-ethoxy-1,3,5-triazin-2-amine] was tested, and the “hCB2 displacement” value [3] was “failed to displace, or barely displaced” and the inhibition at 10 µM [3, 8] was -8.1%.

In the case of `CCCCCCC(C)(C)c1ccc([C@@H]2C[C@H](O)CC[C@H]2CCCO)c(O)c1` [CP 55,940, reference compound], the “Internalisation – pERK Bias factor” value ([4]; relative to CP 55,940) is reported as 1.0, the “cAMP – internalisation Bias factor” value ([4]; relative to CP 55,940) is reported as 1.0 and the “cAMP – pERK Bias factor” value ([4]; relative to CP 55,940) is reported as 1.0. For the same compound, the “Internalisation – pERK ΔΔlogR (±SEM)” value [4] was “–0.02 (0.11)”, the “cAMP – internalisation ΔΔlogR (±SEM)” value [4] was 0.01 (0.10) and the “cAMP – pERK ΔΔlogR (±SEM)” value [4] was 0.00 (0.04). The “pERK potency lower than that for cAMP” value [5] was “approximately 0.5 log unit”, the “pERK potency lower than affinity” value ([5]; EC50 versus Kd) was roughly 10 fold and the “logR [log(τ/KA)] (±SEM) pERK” value [5] was 8.05 (0.03). For the same compound, the “Time of maximal pERK response” value [5] was 4 min, the “logR [log(τ/KA)] (±SEM) cAMP” value [1] was 8.52 (0.02) and the “cAMP potency lower than binding affinity” value ([1]; pEC50 versus pKd) was roughly 0.4 log units. For the same compound, the Emax [1] was -41.7%, the “CB2 binding extent at 10 μM (%) (±SEM)” value [3, 8] was 100.0 (0.0) % and the “Non-hCB2-mediated effects” value [2] was “least pronounced non-hCB2 signalling profile”. The “Starting surface hCB2 internalised” value ([6]; 1 h stimulation) was roughly 66%, the “logR [log(τ/KA)] (±SEM) Internalisation” value [6] was 8.76 (0.1) and the Emax [6, 9] was -65.1%. The “CB1 binding extent at 10 μM (%) (±SEM)” value [7] was 100.0 (0.0) %.

In the case of `CCOc1nc(NC23CC4CC(CC(C4)C2)C3)nc(N2CCN(CCCCCCNC(=O)OC(C)(C)C)CC2)n1` [Compound 9, tert-Butyl N-(6(4-(4-(Adamantan-1-yl)Amino)-6-Ethoxy-1,3,5-Triazin-2-yl)Piperazin-1-yl)Hexyl) Carbamate], the “hCB2 displacement” value [3] is reported as “moderate binders” and the inhibition at 10 µM [3, 8] is reported as 51.9%.

For `CCOc1nc(NC2CCCC2)nc(N2CCN(CCOCCOCCN)CC2)n1` [Compound 6, 4-(4-(2-(2-(2-Aminoethoxy)Ethoxy)Ethyl)Piperazin-1-yl)-N-Cyclopentyl-6-Ethoxy-1,3,5-Triazin-2-Amine], the “hCB2 displacement” value [3] was “failed to displace, or barely displaced” and the inhibition at 10 µM [3, 8] was 15.6%.

For `CCOc1nc(NC23CC4CC(CC(C4)C2)C3)nc(N2CCN(CCCCCCN)CC2)n1` [Compound 12, N-(Adamantan-1-yl)-4-(4-(6-Aminohexyl)Piperazin-1-yl)-6-Ethoxy-1,3,5-Triazin-2-Amine], the “hCB2 displacement” value [3] was “moderate binders” and the inhibition at 10 µM [3, 8] was 43.5%.
